Values of other authors as cited in patent publication US7879746B2, “Hydrophilic polypropylene fibers having antimicrobial activity” (3M Innovative Properties Company, priority 1999, dated 2011).

Conditions: 100% active, glossary value

sorbitan monopalmitate [SPAN™ 40]
HLB: 6.7

sorbitan monostearate [ARLACEL™ 60]
HLB: 4.3

sorbitan sequioleate (1½ mole adduct) [ARLACEL™ 83]
HLB: 3.7
